Laboratory results published in publication PMC6934184, “Selective DNA-PKcs inhibition extends the therapeutic index of localized radiotherapy and chemotherapy” (The Journal of Clinical Investigation, 2019).

Target: T1, EPHB1 (Homo sapiens, UniProt P54762)
T1 construct: purchased Thermo Fisher Scientific (Life Technologies) SelectScreen
Assay: SelectScreen Z'LYTE
Format: biochemical
How it was run: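 SelectScreen broad panel; activity (Z'LYTE, Adapta) plus binding formats. ATP: Km app for CSF1R Z'LYTE; 10 for CAMK1 Adapta. Readout = % per kinase.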

T1 sequence (P54762 18-984): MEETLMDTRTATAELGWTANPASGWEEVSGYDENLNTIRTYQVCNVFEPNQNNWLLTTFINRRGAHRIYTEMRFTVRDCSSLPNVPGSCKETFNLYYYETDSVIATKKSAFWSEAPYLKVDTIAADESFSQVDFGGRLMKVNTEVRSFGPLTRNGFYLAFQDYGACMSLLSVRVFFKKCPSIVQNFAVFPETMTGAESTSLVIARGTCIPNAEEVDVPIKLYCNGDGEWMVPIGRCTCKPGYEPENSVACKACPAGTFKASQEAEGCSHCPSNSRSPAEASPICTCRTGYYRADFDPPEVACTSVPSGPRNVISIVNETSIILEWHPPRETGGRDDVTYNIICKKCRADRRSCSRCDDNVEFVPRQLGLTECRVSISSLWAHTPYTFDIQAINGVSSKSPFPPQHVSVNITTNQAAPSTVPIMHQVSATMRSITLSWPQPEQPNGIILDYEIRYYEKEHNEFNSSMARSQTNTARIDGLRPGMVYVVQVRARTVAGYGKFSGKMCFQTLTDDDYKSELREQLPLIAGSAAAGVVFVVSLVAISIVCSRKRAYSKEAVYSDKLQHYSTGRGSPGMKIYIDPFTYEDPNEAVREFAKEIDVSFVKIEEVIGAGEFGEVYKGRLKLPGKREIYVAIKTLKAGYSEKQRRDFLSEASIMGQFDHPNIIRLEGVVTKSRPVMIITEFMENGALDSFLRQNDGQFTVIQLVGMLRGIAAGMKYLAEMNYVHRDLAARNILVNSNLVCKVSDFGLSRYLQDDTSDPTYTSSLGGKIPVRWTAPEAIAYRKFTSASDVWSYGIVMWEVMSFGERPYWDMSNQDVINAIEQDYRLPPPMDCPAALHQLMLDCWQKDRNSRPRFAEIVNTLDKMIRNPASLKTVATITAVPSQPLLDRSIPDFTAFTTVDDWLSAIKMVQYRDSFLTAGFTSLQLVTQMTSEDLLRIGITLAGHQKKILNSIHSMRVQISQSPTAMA

CN(C(=O)CN1CCOCC1)c1ccc2sc3c(-c4cccc5c(=O)cc(N6CC7CCC(C6)O7)oc45)cccc3c2c1 [NU5455]
inhibition at 1 µM: 5.1%
